Holding throughout (details): 72 h
Assay [1] has as its system Vero E6. In words: drug sensitivity score (DSS) for viability; higher = more toxic; extreme values may be limits of the assay.
Assay [2] concerns Calu-3. The assay is described as above.
The subject of assay [3] is HepG2. The assay is described as above.
The subject of assay [4] is U2OS. The description is as above.
For assay [5], the system named is Caco-2. Described as above.
The test system of assay [6] is Vero E6. Briefly: relative viability EC50 (midpoint between 100% and the lowest measured viability); higher = less toxic.
The subject of assay [7] is HepG2. Described as above.
The test system of assay [8] is Caco-2. The assay is described as above.
Assay [9] concerns U2OS. Described as above.
Assay [10] has as its system Vero E6. In words: cell viability relative to DMSO; higher = less toxic.
Assay [11] relates to HepG2. Described as above.
The subject of assay [12] is Caco-2. The assay is described as above.
Assay [13] deals with U2OS. The description is as above.
Assay [14] concerns Calu-3. Described as above.

`O=C(CCCN1CCN(c2ccccn2)CC1)c1ccc(F)cc1` [azaperone]: the drug sensitivity score in the assay on Vero E6 [1] worked out at 0; in the assay with Calu-3 [2] it was 0.1; in the assay with HepG2 [3], 0.7; with U2OS [4] it was 0.

By cell viability is commonly meant a read-out of living cells in per cent, often relative to untreated cells. As to `CN(C)CCn1nnnc1SCC1=C(C(=O)O)N2C(=O)[C@@H](NC(=O)Cc3csc(N)n3)[C@H]2SC1` [cefotiam], the drug sensitivity score with Vero E6 [1], with HepG2 [3], in the assay on Caco-2 [5] and with U2OS [4] was 0 in each case. The “relative viability EC50” value with Vero E6 [6], in the assay on HepG2 [7], with Caco-2 [8] and in the assay with U2OS [9] was more than 10 µM in each case. Moreover, the cell viability in the assay with Vero E6 [10] (1 nM) was found to be 99.3%; in the assay with Vero E6 [10] (10 nM), 95.5%; with Vero E6 [10] (100 nM) it was 96%; in the assay on Vero E6 [10] (1000 nM), 88.1%; in the assay on Vero E6 [10] (10000 nM) it was 104%; in the assay on HepG2 [11] (1 nM) it was 102%. In addition, the cell viability is 94.5% in the assay on HepG2 [11] (10 nM); 99.7% in the assay on HepG2 [11] (100 nM); 96.5% in the assay on HepG2 [11] (1000 nM); 104% in the assay on HepG2 [11] (10000 nM); 106% in the assay on Caco-2 [12] (1 nM); 96.7% with Caco-2 [12] (10 nM). The cell viability turned out to be 101% in the assay with Caco-2 [12] (100 nM); 103% in the assay with Caco-2 [12] (1000 nM); 104% with Caco-2 [12] (10000 nM); 100% in the assay with U2OS [13] (1 nM); 97.2% with U2OS [13] (10 nM); 106% with U2OS [13] (100 nM). For the same molecule, the cell viability with U2OS [13] (1000 nM) and in the assay with U2OS [13] (10000 nM) was 103% each time.

For `CCCNC(=O)NS(=O)(=O)c1ccc(Cl)cc1` [chlorpropamide], the drug sensitivity score with Vero E6 [1], in the assay with HepG2 [3], in the assay on Caco-2 [5] and in the assay on U2OS [4] was 0 in each case. Besides, the “relative viability EC50” value in the assay with Vero E6 [6], with HepG2 [7], in the assay on Caco-2 [8] and in the assay on U2OS [9] was more than 10 µM each time. For the same molecule, the cell viability with Vero E6 [10] (1 nM) was 97.5%; in the assay on Vero E6 [10] (10 nM), 98.2%; in the assay with Vero E6 [10] (100 nM), 102%; with Vero E6 [10] (1000 nM), 103%; with Vero E6 [10] (10000 nM), 104%; in the assay with HepG2 [11] (1 nM), 104%. In addition, the cell viability worked out at 103% in the assay on HepG2 [11] (10 nM); 102% with HepG2 [11] (100 nM); 95.4% in the assay with HepG2 [11] (1000 nM); 99.8% in the assay with HepG2 [11] (10000 nM); 92.6% in the assay on Caco-2 [12] (1 nM); 108% in the assay with Caco-2 [12] (10 nM). Moreover, the cell viability in the assay with Caco-2 [12] (100 nM) came out at 87.1%; in the assay on Caco-2 [12] (1000 nM), 99.1%; in the assay with Caco-2 [12] (10000 nM) it was 95.2%; in the assay on U2OS [13] (1 nM), 97.4%; in the assay on U2OS [13] (10 nM), 103%; in the assay on U2OS [13] (100 nM), 97.4%. For the same molecule, the cell viability turned out to be 99.9% with U2OS [13] (1000 nM) and 93.6% in the assay with U2OS [13] (10000 nM).

As for `C#C[C@]1(O)CC[C@H]2[C@@H]3CCC4=Cc5oncc5C[C@]4(C)[C@H]3CC[C@@]21C` [danazol], the drug sensitivity score in the assay with Vero E6 [1], in the assay with Calu-3 [2], in the assay with HepG2 [3] and in the assay on U2OS [4] was 0 in each case.

For `CCN1C(=O)NC(c2ccccc2)C1=O` (stereo unspecified) [ethotoin], the drug sensitivity score with Vero E6 [1], in the assay on HepG2 [3] and in the assay on U2OS [4] was 0 in each case.

Regarding `CCOc1ccc2nc(S(N)(=O)=O)sc2c1` [ethoxzolamide], the drug sensitivity score in the assay on Vero E6 [1], in the assay on Calu-3 [2], in the assay with HepG2 [3], in the assay on Caco-2 [5] and in the assay with U2OS [4] was 0 throughout. In addition, the cell viability turned out to be 84.1% in the assay on Vero E6 [10] (1 nM); 93.1% in the assay on Vero E6 [10] (10 nM); 89.4% with Vero E6 [10] (100 nM); 96.3% with Vero E6 [10] (1000 nM); 116% in the assay with Vero E6 [10] (10000 nM); 95.3% in the assay with Calu-3 [14] (1 nM). For the same molecule, the cell viability with Calu-3 [14] (10 nM) came out at 101%; in the assay with Calu-3 [14] (100 nM) it was 101%; in the assay on Calu-3 [14] (1000 nM), 101%; in the assay with Calu-3 [14] (10000 nM) it was 113%; in the assay on HepG2 [11] (1 nM), 101%; in the assay with HepG2 [11] (10 nM) it was 104%. The cell viability came out at 98.6% with HepG2 [11] (100 nM); 125% in the assay on HepG2 [11] (1000 nM); 116% with HepG2 [11] (10000 nM); 102% in the assay with Caco-2 [12] (10 nM); 135% in the assay with Caco-2 [12] (100 nM); 98.6% with Caco-2 [12] (1000 nM). For the same molecule, the cell viability in the assay with Caco-2 [12] (10000 nM) amounted to 95.5%; in the assay with U2OS [13] (1 nM), 96.6%; with U2OS [13] (10 nM) it was 97.9%; in the assay on U2OS [13] (100 nM) it was 97.6%; in the assay with U2OS [13] (1000 nM), 99.3%; in the assay on U2OS [13] (10000 nM), 105%.
